From patent EP1724268A1, “COMPOUND HAVING TGF-BETA INHIBITORY ACTIVITY AND PHARMACEUTICAL COMPOSITION CONTAINING SAME” (KIRIN BEER KABUSHIKI KAISHA, priority 2004, dated 2005)
Marks after values point to notes of the source that are not given here.

What was measured:
[1] = system: TGFβ signal; assay: TGFβ signal inhibitory activity, (SBE)4-Luc reporter in A549 cells (Test Examples 1A and 1B); type: cell-based, human; conditions: Homo sapiens, A549, compounds of Reference Examples (Test Example 1B), read-out: TGFβ inhibition rate, %
Summary of the method: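 Compounds at 3 µM and 10 µM (some 1 µM) were added with 2 ng/ml TGFβ-1 to A549 cells stably expressing an SBE-driven luciferase, then cultured 4 hr. Chemiluminescent luciferase signal gave % inhibition versus TGFβ-alone and no-TGFβ controls.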

[2] = system: mouse unilateral ureteral obstruction (UUO) model; assay: Anti-fibrotic activity, mouse UUO model, mixed feed for 10 days (Test Example 3); type: in vivo; conditions: UUO treatment, kidney, average of five mice ± standard deviation
Method: The anti-fibrotic activity of the compounds related to the present invention was evaluated using a mouse unilateral ureteral obstruction (UUO) model which is a renal fibrosis model. Compound r384 produced in the working example was used as the test compound. Seven week-old male BALB/c mice (available from Charles River Japan, Inc.) were purchased and were pre-raised before use in experiments. Regarding diets and drinking water, pellets CE-2 (available from CLEA JAPAN INC.) and sterile tap water were freely fed. The mice underwent laparotomy under pentobarbital anesthesia, and the left renal urinary duct was ligated. […] After administration for 4 days, the mouse left kidney was removed, and the hydroxyproline content as an index of organ fibrosis was measured by the following method. […] The absorbance at 557 nm was then measured. The content of hydroxyproline was determined from the measured data based on a calibration curve for hydroxyproline prepared using control. Further, the content of hydroxyproline thus determined was corrected according to the weight of the homogenized kidney. The anti-fibrotic activity of a compound related to the present invention was evaluated using the same model as used in Test Example 2. […]

[3] = system: mouse unilateral ureteral obstruction (UUO) model; assay: Anti-fibrotic activity, mouse unilateral ureteral obstruction (UUO) model, oral administration (Test Example 2); type: in vivo, BALB/c mice; conditions: UUO treatment, left kidney, average of 7 mice ± standard deviation
Method: The anti-fibrotic activity of the compounds related to the present invention was evaluated using a mouse unilateral ureteral obstruction (UUO) model which is a renal fibrosis model. Compound r384 produced in the working example was used as the test compound. Seven week-old male BALB/c mice (available from Charles River Japan, Inc.) were purchased and were pre-raised before use in experiments. Regarding diets and drinking water, pellets CE-2 (available from CLEA JAPAN INC.) and sterile tap water were freely fed. The mice underwent laparotomy under pentobarbital anesthesia, and the left renal urinary duct was ligated. Thereafter, the mice underwent suturing operation and were divided into a vehicle administration group (n = 7) and a test compound administration group (n = 7) using the weight as an index. The test compound was weighed, and then one drop of 1 N HCl was added to the test compound to prepare a solution. The solution was then suspended in 0.5% carboxymethylcellulose (solvent). The suspension was forcibly orally administered twice a day with an oral sonde from the day of urinary duct ligation (5, 15, or 50 mg/kg). The solvent was administered to the vehicle administration group in the same manner as described just above.
After administration for 4 days, the mouse left kidney was removed, and the hydroxyproline content as an index of organ fibrosis was measured by the following method. Renal pieces were first placed in 6 N HCl, were homogenized, and were then heated on a heat block at 130°C for 3 hr to hydrolyze protein. Thereafter, the suspension of renal pieces was neutralized by the addition of an appropriate amount of 4 N NaOH. The neutralized suspension was centrifuged (1000 rpm, 5 min, room temperature) to obtain the supernatant as a kidney extract. […] The absorbance at 557 nm was then measured. The content of hydroxyproline was determined from the measured data based on a calibration curve for hydroxyproline prepared using control. Further, the content of hydroxyproline thus determined was corrected according to the weight of the homogenized kidney. […]

[4] = system: mouse DMN hepatic fibrosis model; assay: Anti-fibrotic activity, mouse DMN hepatic fibrosis model (Test Example 4); type: in vivo, BALB/c mice; conditions: DMN administration, 21 days, average of 6 mice ± standard deviation
Method: The anti-fibrotic activity of a compound related to the present invention was evaluated using a mouse DMN hepatic fibrosis model as a liver fibrosis model. Compound r384 prepared in the working example was used as the test compound. Six-week-old male BALB/c mice (available from Charles River Japan, Inc.) were purchased and were pre-raised before use in experiments. The mice were divided into a vehicle administration group (n = 6) and a test compound administration group ([…]) using the weight as an index. Thereafter, dimethylnitrosoamine (DMN) diluted with physiological saline was intraperitoneally administered at 15 mg/kg three times per week for 3 weeks to induce hepatic fibrosis. The administration of the test compound was carried out from the first day of the DMN administration. The test compound was mixed at the dosage of 0.015, 0.03, and 0.06% in powder diet CE-2 (available from CLEA JAPAN INC.), and the mixtures were fed as a diet to each mouse group. After 21 days, the mice underwent laparotomy under ether anesthesia, and blood was collected from the heart, followed by measurement of the level of hyaluronic acid in blood as an index of hepatic fibrosis using a hyaluronic acid plate (Chugai Pharmaceutical Co., Ltd.).
The values in the table are average of data on 6 mice for each group ± standard deviation.

Structure (SMILES)	inhibition at 3 µM [1] [%]	inhibition at 10 µM [1] [%]	Hydroxyproline content (mg/g protein) ([2]; 0.1% mixed feed for 10 days)	Hydroxyproline content (mg/g protein) ([2]; 0.3% mixed feed for 10 days)	Hydroxyproline content ([3]; 5 mg/kg orally twice a day for 4 days) [µg/g]	Hydroxyproline content ([3]; 15 mg/kg orally twice a day for 4 days) [µg/g]	Hydroxyproline content ([3]; 50 mg/kg orally twice a day for 4 days) [µg/g]	Blood hyaluronic acid content ([4]; 0.015% mixed feed) [ng/mL]	Blood hyaluronic acid content (ng/ml) ([4]; 0.06% mixed feed)
COc1cc2c(Oc3cc(C)c(C)cc3C(C)=O)ccnc2cc1OCCCN1CCOCC1.Cl [Compound r320, 1-{2-[6-Methoxy-7-(3-morpholin-4-yl-propoxy)-quinolin-4-yloxy]-4,5-dimethyl-phenyl}-ethanone hydrochloride]	100	100	9.44 ± 0.53	9.19 ± 0.38					
COc1cc2c(Oc3cc4ccccc4nc3C)ccnc2cc1OCC(O)CO (centres unmarked) [Compound r384, 3-[6-Methoxy-4-(2-metharl-quinolin-3-yloxy)-quinolin-7-yloxy]-propane-1,2-diol]	100	100			514 ± 20.8	488 ± 10.9	426 ± 14.2	167.8 ± 25.0	97.2 + 11.0** ng/ml
